Columns and labels:
[1] = target: T1, PI3K-alpha (Homo sapiens, UniProt P42336); assay: HTRF PI3K biochemical assay, alpha isoform; details: ratio PI3K-alpha IC50 value / PI3K-delta IC50 value
T1 construct: purchased Upstate; Millipore 14-602
From the text: The PI3-Kinase biochemical assays were developed to measure the intrinsic potency and compound dependent inhibition of the alpha, beta, delta, and gamma PI3K isoform enzymes. This assay was developed and further optimized from a kit produced by Upstate (Millipore catalog #33-047) and has been configured for HTS and SAR screening. Briefly, this procedure exploits the exquisite specificity and high affinity binding of enzyme reaction substrate phosphatidyl(3,4,5)triphosphate (PIP3) to the GRP1 pleckstrin homology (PH) domain to generate the signal. In the absence of PIP3, an HTRF (Homogeneous Time-Resolved Fluorescence energy transfer) complex is formed consisting of europium (Eu)-labeled anti-GST, GSTtagged GRP1-PH domain, biotin-PIP3 and streptavidin conjugated APC. The native PIP3 produced by PI3-Kinase activity disrupts in a competitive manner the biotin-PIP3 from the PH domain, resulting in the loss of energy transfer (HTRF complex) and a decrease in the signal. The format of this assay is the same for all 4 isoforms of PI3K; the differences lie in the concentration of enzyme used to achieve robust assay window. The alpha, beta, and delta assays are run at 0.5, 1, and 0.3 nM enzymes and the gamma assay is run at 5 nM enzyme. The ATP concentration is 100 uM in the alpha, beta, and delta assays and 50 uM ATP in the gamma assay. All reactions are run at 5 uM PIP2.
(§1) Compounds are serially diluted (3-fold in 100% DMSO) across a 384-well polypropylene source plated from column 3 to column 12 and column 13 to column 22, to yield 10 concentration dose response for each test compound. Columns 1, 2, 23 and 24 contain either only DMSO or pharmacological known control inhibitor.
(§2) The PI3-Kinase biochemical assay was optimized using the HTRF kit provided by Upstate (Millipore). The assay kit contains six reagents: 1) 4× Reaction Buffer; 2) native PIP2 (substrate); 3) Stop (EDTA); 4) Detection Mix A (Streptavidin-APC); 5) Detection Mix B (Eu-labeled Anti-GST plus GST-tagged PH-domain); 6) Detection Mix C.
(§3) PI3Kinase Reaction Buffer is prepared by dilution the stock 1:4 with de-ionized water. […] Enzyme addition and compound pre-incubation are initiated by the addition of 1.25 ul of PI3K (at twice its final concentration) in the 1× reaction buffer to all wells using a BioRaptor. Plates are incubated at room temperature for 15 minutes. Reactions are initiated by addition of 1.25 ul of 2× substrate solution (PIP2 and ATP in 1× reaction buffer) using BioRaptor. Plates are incubated in humidified chamber at room temperature for one hour. Reactions are quenched by addition of 0.625 uL of stop solution to all wells using the BioRaptor. The quenched reactions are then processed to detect product formation by adding 0.625 uL of Detection Solution to all wells using the BioRaptor (Detection mix C, Detection Mix A, and Detection Mix B combined together in an 18:1:1 ratio prepared 2 hours prior to use).
(§4) The loss of the HTRF signal is due to the displacement of biotinylated-PIP3 from the PH domain by the PI3K-dependent conversion of PIP2 to PIP3. This loss of signal is nonlinear with respect to both increasing product and time. This non-linear detection will impact accuracy of IC50 calculations; therefore, there is a need for a correction factor to obtain more accurate IC50 values. This correction is derived from a PIP3 standard curve run in a separate assay plate. All data were calculated using the ratio of acceptor (APC) to donor (Europium) fluorescence in each well of the assay plate. […] An IC50 was then calculated fitting the % inhibition data to the equation: % inhibition=min+(Max−min)/1+([inhibitor]/IC50)^n) where min is the % inhibition with inhibitor, max is the signal in DMSO control, and n is the Hill slope.
The determination of relative selectivity for a given compound is defined as the relative ratio of the (PI3K-alphalC50 value/PI3K-delta IC50 value).

[2] = target: T2, PI3K-delta (Homo sapiens, UniProt O00329); assay: HTRF PI3K biochemical assay, delta isoform; details: form screened (neutral or TFA salt) given, read-out: PI3Kdelta IC50
T2 construct: purchased Upstate; Millipore 14-604
T2 sequence (O00329 whole entry, canonical isoform): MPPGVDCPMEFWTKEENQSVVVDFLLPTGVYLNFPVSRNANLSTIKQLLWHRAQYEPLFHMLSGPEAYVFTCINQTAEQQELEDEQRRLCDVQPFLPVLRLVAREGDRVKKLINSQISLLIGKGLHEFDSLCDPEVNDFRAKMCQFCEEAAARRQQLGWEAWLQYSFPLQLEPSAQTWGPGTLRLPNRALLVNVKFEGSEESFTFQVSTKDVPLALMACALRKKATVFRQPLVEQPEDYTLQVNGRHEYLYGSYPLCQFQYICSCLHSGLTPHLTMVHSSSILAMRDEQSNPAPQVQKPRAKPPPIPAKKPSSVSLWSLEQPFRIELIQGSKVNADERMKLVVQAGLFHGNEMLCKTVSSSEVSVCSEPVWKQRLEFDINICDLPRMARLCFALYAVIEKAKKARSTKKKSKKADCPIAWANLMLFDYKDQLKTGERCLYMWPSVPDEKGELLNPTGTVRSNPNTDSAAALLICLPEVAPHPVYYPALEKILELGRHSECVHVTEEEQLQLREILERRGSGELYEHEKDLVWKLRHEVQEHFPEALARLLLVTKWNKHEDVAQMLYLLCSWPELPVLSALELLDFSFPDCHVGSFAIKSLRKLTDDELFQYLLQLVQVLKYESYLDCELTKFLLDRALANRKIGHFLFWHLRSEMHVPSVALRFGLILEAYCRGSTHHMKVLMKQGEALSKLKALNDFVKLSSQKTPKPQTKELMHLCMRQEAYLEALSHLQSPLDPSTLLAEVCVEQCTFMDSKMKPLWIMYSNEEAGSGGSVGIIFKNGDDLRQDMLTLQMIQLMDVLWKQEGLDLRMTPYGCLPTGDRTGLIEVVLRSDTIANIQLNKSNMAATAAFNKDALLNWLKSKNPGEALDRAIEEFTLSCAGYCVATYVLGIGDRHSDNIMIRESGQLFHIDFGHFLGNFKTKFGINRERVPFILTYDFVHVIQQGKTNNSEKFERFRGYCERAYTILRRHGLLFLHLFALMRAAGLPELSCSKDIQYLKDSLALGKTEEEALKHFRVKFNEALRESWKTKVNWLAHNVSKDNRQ
T2 sequence (P27986 whole entry partner, canonical isoform): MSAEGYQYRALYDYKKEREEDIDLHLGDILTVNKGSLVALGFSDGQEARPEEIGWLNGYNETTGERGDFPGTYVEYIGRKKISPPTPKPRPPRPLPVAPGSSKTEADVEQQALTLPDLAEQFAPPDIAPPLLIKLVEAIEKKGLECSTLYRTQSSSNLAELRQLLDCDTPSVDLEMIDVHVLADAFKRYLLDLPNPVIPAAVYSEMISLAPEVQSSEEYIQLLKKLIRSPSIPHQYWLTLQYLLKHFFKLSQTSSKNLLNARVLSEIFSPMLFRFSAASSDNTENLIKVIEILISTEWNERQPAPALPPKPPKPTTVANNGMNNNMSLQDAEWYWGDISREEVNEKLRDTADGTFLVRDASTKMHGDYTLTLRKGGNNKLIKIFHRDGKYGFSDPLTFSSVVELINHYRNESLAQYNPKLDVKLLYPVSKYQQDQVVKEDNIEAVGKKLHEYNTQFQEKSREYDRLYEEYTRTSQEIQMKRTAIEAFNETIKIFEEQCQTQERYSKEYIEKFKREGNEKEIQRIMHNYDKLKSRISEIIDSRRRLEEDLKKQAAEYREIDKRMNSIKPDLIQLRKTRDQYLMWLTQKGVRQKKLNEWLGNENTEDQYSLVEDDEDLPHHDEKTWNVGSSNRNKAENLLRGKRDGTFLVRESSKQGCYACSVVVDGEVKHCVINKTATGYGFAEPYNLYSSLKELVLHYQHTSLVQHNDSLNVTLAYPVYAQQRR
From the text: HTRF PI3K Biochemical Assay to Measure Intrinsic Potency of Compound Inhibitors
This assay was developed and further optimized from a kit produced by Upstate (Millipore catalog #33-047) and has been configured for HTS and SAR screening. Briefly, this procedure exploits the exquisite specificity and high affinity binding of enzyme reaction substrate phosphatidyl(3,4,5)triphosphate (PIP3) to the GRP1 pleckstrin homology (PH) domain to generate the signal. In the absence of PIP3, an HTRF (Homogeneous Time-Resolved Fluorescence energy transfer) complex is formed consisting of europium (Eu)-labeled anti-GST, GSTtagged GRP1-PH domain, biotin-PIP3 and streptavidin conjugated APC. The native PIP3 produced by PI3-Kinase activity disrupts in a competitive manner the biotin-PIP3 from the PH domain, resulting in the loss of energy transfer (HTRF complex) and a decrease in the signal. The format of this assay is the same for all 4 isoforms of PI3K; the differences lie in the concentration of enzyme used to achieve robust assay window. The alpha, beta, and delta assays are run at 0.5, 1, and 0.3 nM enzymes and the gamma assay is run at 5 nM enzyme. The ATP concentration is 100 uM in the alpha, beta, and delta assays and 50 uM ATP in the gamma assay. All reactions are run at 5 uM PIP2.
as §1, §2, §3, §4

T1 sequence (P42336 whole entry, canonical isoform): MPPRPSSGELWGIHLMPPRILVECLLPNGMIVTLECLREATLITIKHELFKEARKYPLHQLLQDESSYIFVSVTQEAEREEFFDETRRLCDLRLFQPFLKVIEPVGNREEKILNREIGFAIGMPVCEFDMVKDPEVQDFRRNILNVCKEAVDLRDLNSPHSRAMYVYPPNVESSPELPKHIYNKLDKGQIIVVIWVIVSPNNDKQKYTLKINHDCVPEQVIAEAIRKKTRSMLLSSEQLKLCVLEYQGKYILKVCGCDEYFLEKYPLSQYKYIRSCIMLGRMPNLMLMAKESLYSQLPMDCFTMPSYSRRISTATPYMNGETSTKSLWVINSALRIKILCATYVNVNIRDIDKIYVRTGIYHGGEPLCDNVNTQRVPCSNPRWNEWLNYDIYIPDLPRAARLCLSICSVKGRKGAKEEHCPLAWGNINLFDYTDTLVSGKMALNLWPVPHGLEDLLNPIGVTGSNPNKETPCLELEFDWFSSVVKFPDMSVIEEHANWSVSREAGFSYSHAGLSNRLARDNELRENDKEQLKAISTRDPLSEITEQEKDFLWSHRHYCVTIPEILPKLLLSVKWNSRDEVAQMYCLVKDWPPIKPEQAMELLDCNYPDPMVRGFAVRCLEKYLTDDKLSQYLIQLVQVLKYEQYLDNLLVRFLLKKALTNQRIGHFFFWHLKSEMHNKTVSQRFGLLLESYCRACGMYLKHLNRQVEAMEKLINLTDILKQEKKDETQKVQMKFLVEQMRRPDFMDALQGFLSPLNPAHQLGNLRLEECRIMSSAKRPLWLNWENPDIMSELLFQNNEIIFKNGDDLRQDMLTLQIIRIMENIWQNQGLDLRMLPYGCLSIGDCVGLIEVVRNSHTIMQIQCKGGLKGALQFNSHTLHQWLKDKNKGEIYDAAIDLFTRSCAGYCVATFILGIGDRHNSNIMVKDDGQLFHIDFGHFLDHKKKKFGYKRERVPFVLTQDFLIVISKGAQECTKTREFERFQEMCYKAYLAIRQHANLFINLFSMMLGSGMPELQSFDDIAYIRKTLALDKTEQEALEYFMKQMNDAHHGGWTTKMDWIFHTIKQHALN
T1 sequence (P27986 whole entry partner, canonical isoform): as the sequence (P27986 whole entry partner, canonical isoform) above

Compound	Selectivity versus PI3Kalpha [1]	IC50 [2] [nM]
CCn1c(-c2ccc(OC)nc2)nc2c(N[C@H]3CCN(C(=O)OC(C)(C)C)C3)ncnc21 [Compound 1-23, tert-butyl (3S)-3-{[9-ethyl-8-(6-methoxypyridin-3-yl)-9H-purin-6-yl]amino}pyrrolidine-1-carboxylate]	>10	< 1
CCn1c(-c2ccc(C(F)(F)F)cc2)nc2c(N[C@H]3CCN(C(=O)OC(C)(C)C)C3)ncnc21 [Compound 1-24, tert-butyl (3S)-3-({9-ethyl-8-[4-(trifluoromethyl)phenyl]-9H-purin-6-yl}amino)pyrrolidine-1-carboxylate]	>10	1.5
CCC(=O)N1CC[C@@H](Nc2ncnc3c2nc(-c2cnn(CC)c2C)n3C)C1 [Compound 2-1, 8-(1-ethyl-5-methyl-1H-pyrazol-4-yl)-9-methyl-N-[(3R)-1-propanoylpyrrolidin-3-yl]-9H-purin-6-amine]	>10	32
CCC(=O)N1CC[C@H](Nc2ncnc3c2nc(-c2cnn(CC)c2C)n3C)C1 [Compound 2-3, (S)-1-(3-((8-(1-ethyl-5-methyl-1H-pyrazol-4-yl)-9-methyl-9H-purin-6-yl)amino)pyrrolidin-1-yl)propan-1-one]	>10	< 1
CCn1ncc(-c2nc3c(N[C@H]4CCN(C(=O)C5CCOCC5)C4)ncnc3n2C)c1C [Compound 2-4, 8-(1-ethyl-5-methyl-1H-pyrazol-4-yl)-9-methyl-N-[(3S)-1-(tetrahydro-2H-pyran-4-ylcarbonyl)pyrrolidin-3-yl]-9H-purin-6-amine]	>10	< 1
CCn1ncc(-c2nc3c(N[C@H]4CCN(C(=O)c5nc(C)oc5C)C4)ncnc3n2C)c1C [Compound 2-5, N-{(3S)-1-[(2,5-dimethyl-1,3-oxazol-4-yl)carbonyl]pyrrolidin-3-yl}-8-(1-ethyl-5-methyl-1H-pyrazol-4-yl)-9-methyl-9H-purin-6-amine]	>10	1.5
CCn1ncc(-c2nc3c(N[C@H]4CCN(C(=O)C5CCOC(C)(C)C5)C4)ncnc3n2C)c1C (stereo partly drawn) [Compound 2-6, N-{(3S)-1-[(2,2-dimethyltetrahydro-2H-pyran-4-yl)carbonyl]pyrrolidin-3-yl}-8-(1-ethyl-5-methyl-1H-pyrazol-4-yl)-9-methyl-9H-purin-6-amine]	>10	1.6
CCn1ncc(-c2nc3c(N[C@H]4CCN(C(=O)C5CC5)C4)ncnc3n2C)c1C [Compound 2-7, N-[(3S)-1-(cyclopropylcarbonyl)pyrrolidin-3-yl]-8-(1-ethyl-5-methyl-1H-pyrazol-4-yl)-9-methyl-9H-purin-6-amine]	>10	1.2
CCC(=O)N1CC[C@H](N(C)c2ncnc3c2nc(-c2cnc(OC)c(C)c2)n3CC)C1 [Compound 2-8, (S)-1-(3-((9-ethyl-8-(6-methoxy-5-methylpyridin-3-yl)-9H-purin-6-yl)(methyl)amino)pyrrolidin-1-yl)propan-1-one]	>10	2.2
CCC(=O)N1CC[C@H](Nc2ncnc3c2nc(-c2cnc(OC)c(C)c2)n3CC)C1 [Compound 2-9, (S)-1-(3-((9-ethyl-8-(6-methoxy-5-methylpyridin-3-yl)-9H-purin-6-yl)amino)pyrrolidin-1-yl)propan-1-one]	>10	< 1
CCC(=O)N1CC[C@H](Nc2ncnc3c2nc(-c2cnc(C(C)(C)C)s2)n3CC)C1 [Compound 2-10, (S)-1-(3-((8-(2-(tert-butyl)thiazol-5-yl)-9-ethyl-9H-purin-6-yl)amino)pyrrolidin-1-yl)propan-1-one]	>10	< 1
CCC(=O)N1CC[C@H](N(C)c2ncnc3c2nc(-c2cnc(C(C)(C)C)s2)n3CC)C1 [Compound 2-11, (S)-1-(3-((8-(2-(tert-butyl)thiazol-5-yl)-9-ethyl-9H-purin-6-yl)(methyl)amino)pyrrolidin-1-yl)propan-1-one]	>10	3.6
CCC(=O)N1CC[C@H](Nc2ncnc3c2nc(-c2cnc(OC)c(C)c2)n3C)C1 [Compound 2-12, (S)-1-(3-((8-(6-methoxy-5-methylpyridin-3-yl)-9-methyl-9H-purin-6-yl)amino)pyrrolidin-1-yl)propan-1-one]	>10	3.5
CCC(=O)N1CC[C@H](N(C)c2ncnc3c2nc(-c2cnc(OC)c(C)c2)n3C)C1 [Compound 2-13, (S)-1-(3-((8-(6-methoxy-5-methylpyridin-3-yl)-9-methyl-9H-purin-6-yl)(methyl)amino)pyrrolidin-1-yl)propan-1-one]	>10	17
CCC(=O)N1CC[C@H](Nc2ncnc3c2nc(-c2cnc(C(C)(C)C)s2)n3C)C1 [Compound 2-14, (S)-1-(3-((8-(2-(tert-butyl)thiazol-5-yl)-9-methyl-9H-purin-6-yl)amino)pyrrolidin-1-yl)propan-1-one]	>10	1.2
CCC(=O)N1CC[C@H](Nc2ncnc3c2nc(-c2cnn(CC)c2C)n3CC)C1 [Compound 2-15, (S)-1-(3-((9-ethyl-8-(1-ethyl-5-methyl-1H-pyrazol-4-yl)-9H-purin-6-yl)amino)pyrrolidin-1-yl)propan-1-one]	>10	< 1
CCC(=O)N1CC[C@H](Nc2ncnc3c2nc(-c2cnn(CC)c2C)n3C2CC2)C1 [Compound 2-16, (S)-1-(3-((9-cyclopropyl-8-(1-ethyl-5-methyl-1H-pyrazol-4-yl)-9H-purin-6-yl)amino)pyrrolidin-1-yl)propan-1-one]	>10	53
CCC(=O)N1CC[C@H](Nc2ncnc3c2nc(-c2cnc(C)nc2)n3CC)C1 [Compound 2-17, (S)-1-(3-((9-ethyl-8-(2-methylpyrimidin-5-yl)-9H-purin-6-yl)amino)pyrrolidin-1-yl)propan-1-one]	>10	2.7
CCn1c(-c2cnc(C)nc2)nc2c(N[C@H]3CCN(C(=O)C4CCOCC4)C3)ncnc21 [Compound 2-18, (S)-(3-((9-ethyl-8-(2-methylpyrimidin-5-yl)-9H-purin-6-yl)amino)pyrrolidin-1-yl)(tetrahydro-2H-pyran-4-yl)methanone]	>10	2.4
CCn1c(-c2cnc(C)nc2)nc2c(N[C@H]3CCN(C(=O)c4nc(C)oc4C)C3)ncnc21 [Compound 2-19, (S)-(2,5-dimethyloxazol-4-yl)(3-((9-ethyl-8-(2-methylpyrimidin-5-yl)-9H-purin-6-yl)amino)pyrrolidin-1-yl)methanone]	>10	2.1
CCn1c(-c2cnc(C)nc2)nc2c(N[C@H]3CCN(C(=O)C4CC4)C3)ncnc21 [Compound 2-21, (S)-cyclopropyl(3-((9-ethyl-8-(2-methylpyrimidin-5-yl)-9H-purin-6-yl)amino)pyrrolidin-1-yl)methanone]	>10	< 1
CCn1c(-c2cnc(C)nc2)nc2c(N[C@H]3CCN(C(=O)C4CCC4)C3)ncnc21 [Compound 2-22, (S)-cyclobutyl(3-((9-ethyl-8-(2-methylpyrimidin-5-yl)-9H-purin-6-yl)amino)pyrrolidin-1-yl)methanone]	>10	1.7
